Measured values published in patent US10442788B2, “Hepatitis B antiviral agents” (ENANTA PHARMACEUTICALS, INC., priority 2015, dated 2019).

Legend:
[1] = test system: HBV; assay: HepAD38 antiviral assay: reduction of viral product accumulation (virion DNA by qPCR, HBsAg or HBeAg by ELISA); format: cell-based; conditions: Hepatitis B virus, 120 h; HepAD38 cells, five days after compound addition; 50% reduction of viral product accumulation relative to no drug controls; read-out: HepAD38 EC50
In short: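 Tetracycline-washed HepAD38 cells treated with compound (DMSO diluted 1:200) for 5 days, or 8 days with media and compound refreshed on d2 and d5. Virion DNA from lysates quantified by qPCR; HBsAg or HBeAg by ELISA. EC50 is the concentration giving 50% reduction versus no-drug controls, reported as ranges A<1 μM, B 1-10 μM, C>10 μM.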

[2] = Compound toxicity, ATPLite total ATP levels; format: cell-based; conditions: human, HepAD38 cells; 15,000 cells/well, three days after compound addition; 50% reduction of total ATP levels relative to no drug controls
Description: Methods: HepAD38 cells are maintained as previously reported (Ladner et al, Antimicrob. Agents Chemother. 1997, […], 1715). Briefly, cells are passaged upon attaining confluency in DMEM/F12 media in the presence of 10% FBS, Penn/Strep, 250 μg/mL G418, and 1 ug/ml tetracycline. Novel compounds are screened by first washing cells three times with PBS to remove tetracycline, and plating in 96 well plates at 35,000 cells/well. Compounds dissolved in DMSO are then diluted 1:200 into wells containing cells. Five days after compound addition, material is harvested for analysis. For an extended 8 day analysis, cells are plated and treated as described above, but media and compound are refreshed on d2 and d5 post initial treatment.
Compound toxicity is evaluated by seeding cells at 15,000 cells/well and treating with compound as described above. Three days after compound addition, cells are treated with ATPLite reagent and compound concentrations that reduce total ATP levels in wells by 50% relative to no drug controls (CC50) are reported; CC50 ranges are as follows: A>30 μM; B 10-30 μM; C<10 μM.

Structure (SMILES) | EC50 [1] | CC50 at 3 days [2]
O=S(=O)(c1cc2nc(-c3ccccc3)[nH]c2cc1Cl)N1CCC(O)CC1 [Example 2] | > 10 µM | < 10 µM
O=S(=O)(c1cc2nc(-c3cc(F)c(F)c(F)c3)[nH]c2cc1Cl)N1CCC(O)CC1 [Example 3] | > 10 µM | > 30 µM
O=S(=O)(c1c(Cl)ccc2c(-c3ccccc3)n[nH]c12)N1CCC(O)CC1 [Example 4] | > 10 µM | > 30 µM
O=S(=O)(c1c(Cl)ccc2c(-c3cc(F)c(F)c(F)c3)n[nH]c12)N1CCC(O)CC1 [Example 5] | 1 to 10 µM | > 30 µM
O=S(=O)(c1cc(-c2n[nH]c3ccccc23)ccc1Cl)N1CCC(O)CC1 [Example 6] | > 10 µM | > 30 µM
O=S(=O)(c1cc(-c2ncc(-c3ccc(F)c(F)c3)[nH]2)cs1)N1CCC(O)CC1 [Example 7] | 1 to 10 µM | > 30 µM
O=S(=O)(c1cc(-c2cc(-c3ccc(F)c(F)c3)[nH]n2)ccc1Cl)N1CCC(O)CC1 [Example 8] | < 1 µM | 10 to 30 µM
O=S(=O)(c1cc(-c2nc3ccccc3[nH]2)ccc1Cl)N1CCC(O)CC1 [Example 9] | > 10 µM | 10 to 30 µM
O=S(=O)(c1cc(-c2nc3cc(F)c(F)cc3[nH]2)ccc1Cl)N1CCC(O)CC1 [Example 10] | 1 to 10 µM | > 30 µM
O=S(=O)(c1cc(-c2ncc(-c3ccccc3)[nH]2)ccc1Cl)N1CCC(O)CC1 [Example 11] | 1 to 10 µM | > 30 µM
O=S(=O)(c1cc(-c2ncc(-c3ccc(F)c(F)c3)[nH]2)ccc1Cl)N1CCC(O)CC1 [Example 12] | < 1 µM | > 30 µM
O=S(=O)(c1cc(-c2ncc(-c3ccc(F)c(Cl)c3)[nH]2)ccc1Cl)N1CCC(O)CC1 [Example 13] | < 1 µM | 10 to 30 µM
O=S(=O)(c1cc(-c2ncc(-c3ccc(F)c(Br)c3)[nH]2)ccc1Cl)N1CCC(O)CC1 [Example 14] | < 1 µM | 10 to 30 µM
O=S(=O)(c1ccc2[nH]c(-c3ccccc3)nc2c1)N1CCC(O)CC1 [Example 15] | > 10 µM | > 30 µM
O=S(=O)(c1cc(-c2cnc(-c3ccc(F)c(F)c3)[nH]2)ccc1Cl)N1CCC(O)CC1 [Example 16] | 1 to 10 µM | > 30 µM
O=S(=O)(c1cc(-c2nc(-c3ccc(Br)c(F)c3)c[nH]2)ccc1Cl)N1CCC(O)CC1 [Example 18] | < 1 µM | 10 to 30 µM
O=S(=O)(c1cc(-c2ncc(-c3cccs3)[nH]2)ccc1Cl)N1CCC(O)CC1 [Example 21] | < 1 µM | > 30 µM
N#Cc1cc(-c2cnc(-c3ccc(Cl)c(S(=O)(=O)N4CCC(O)CC4)c3)[nH]2)ccc1F [Example 22] | < 1 µM | > 30 µM
O=S(=O)(c1cc(-c2nnc(-c3ccc(F)c(F)c3)[nH]2)ccc1Cl)N1CCC(O)CC1 [Example 23] | 1 to 10 µM | 10 to 30 µM

Structure (SMILES) | EC50 [1] | CC50 at 3 days [2]
O=S(=O)(c1cc(-c2cc(-c3ccc(F)c(Br)c3)[nH]n2)ccc1Cl)N1CCC(O)CC1 [Example 24] | 1 to 10 µM | < 10 µM
Cc1cc(-c2cc(-c3ccc(Cl)c(S(=O)(=O)N4CCC(O)CC4)c3)n[nH]2)ccc1F [Example 25] | 1 to 10 µM | 10 to 30 µM
O=S(=O)(c1cc(-c2ncc(-c3ccc(F)c(F)c3)o2)ccc1Cl)N1CCC(O)CC1 [Example 26] | > 10 µM | > 30 µM
N#Cc1cc(-c2cc(-c3ccc(Cl)c(S(=O)(=O)N4CCC(O)CC4)c3)n[nH]2)ccc1F [Example 27] | 1 to 10 µM | > 30 µM
C#Cc1cc(-c2cc(-c3ccc(Cl)c(S(=O)(=O)N4CCC(O)CC4)c3)n[nH]2)ccc1F [Example 28] | < 1 µM | < 10 µM
O=S(=O)(c1cc(-c2cc(-c3ccc(F)c(Cl)c3)[nH]n2)ccc1Cl)N1CCC(O)CC1 [Example 29] | < 1 µM | < 10 µM
O=S(=O)(c1cc(-c2nc(-c3cc(F)c(F)c(F)c3)c[nH]2)ccc1Cl)N1CCC(O)CC1 [Example 30] | 1 to 10 µM | 10 to 30 µM
O=C1CCN(S(=O)(=O)c2cc(-c3ncc(-c4ccc(F)c(Br)c4)[nH]3)ccc2Cl)CC1 [Example 31] | 1 to 10 µM | 10 to 30 µM
CC1(O)CCN(S(=O)(=O)c2cc(-c3ncc(-c4ccc(F)c(Br)c4)[nH]3)ccc2Cl)CC1 [Example 32] | 1 to 10 µM | 10 to 30 µM
O=S(=O)(c1cc(-c2nc(-c3ccccn3)c[nH]2)ccc1Cl)N1CCC(O)CC1 [Example 33] | > 10 µM | 10 to 30 µM
CC(=O)OC1CCN(S(=O)(=O)c2cc(-c3nc(-c4ccc(F)c(Br)c4)c[nH]3)ccc2Cl)CC1 [Example 35] | 1 to 10 µM | 10 to 30 µM
COC(=O)[C@@H]1CCCN1S(=O)(=O)c1cc(-c2ncc(-c3ccc(F)c(Br)c3)[nH]2)ccc1Cl [Example 36] | > 10 µM | > 30 µM
O=S(=O)(c1cc(-c2ncc(-c3ccc(F)c(Br)c3)[nH]2)ccc1Cl)N1CCCCC1 [Example 37] | < 1 µM | < 10 µM
O=S(=O)(NCCO)c1cc(-c2ncc(-c3ccc(F)c(Br)c3)[nH]2)ccc1Cl [Example 38] | < 1 µM | 10 to 30 µM
COC1CCN(S(=O)(=O)c2cc(-c3ncc(-c4ccc(F)c(Br)c4)[nH]3)ccc2Cl)CC1 [Example 39] | < 1 µM | 10 to 30 µM
O=S(=O)(c1cc(-c2nc(-c3ccc(F)cc3)c[nH]2)ccc1Cl)N1CCC(O)CC1 [Example 40] | 1 to 10 µM | > 30 µM
CC(C)OC(=O)[C@@H](C)NS(=O)(=O)c1cc(-c2ncc(-c3ccc(F)c(Br)c3)[nH]2)ccc1Cl [Example 41] | 1 to 10 µM | > 30 µM
O=S(=O)(c1cc(-c2ncc(-c3ccc(F)c(Br)c3)[nH]2)ccc1Cl)N1CCOCC1 [Example 42] | < 1 µM | 10 to 30 µM
O=S(=O)(NCCCO)c1cc(-c2ncc(-c3ccc(F)c(Br)c3)[nH]2)ccc1Cl [Example 43] | < 1 µM | 10 to 30 µM

Structure (SMILES) | EC50 [1] | CC50 at 3 days [2]
O=S(=O)(c1cc(-c2ncc(-c3ccc(F)c(Br)c3)[nH]2)ccc1Cl)N1CCC(F)CC1 [Example 44] | < 1 µM | < 10 µM
Cc1cc(-c2cnc(-c3ccc(Cl)c(S(=O)(=O)N4CCC(O)CC4)c3)[nH]2)ccc1F [Example 45] | < 1 µM | > 30 µM
COc1cc(-c2cnc(-c3ccc(Cl)c(S(=O)(=O)N4CCC(O)CC4)c3)[nH]2)ccc1F [Example 46] | < 1 µM | > 30 µM
N#Cc1ccc(-c2cnc(-c3ccc(Cl)c(S(=O)(=O)N4CCC(O)CC4)c3)[nH]2)cc1F [Example 47] | < 1 µM | > 30 µM
O=S(=O)(c1cc(-c2ncc(-c3ccc(F)c(C4CC4)c3)[nH]2)ccc1Cl)N1CCC(O)CC1 [Example 48] | < 1 µM | 10 to 30 µM
O=S(=O)(c1cc(-c2ncc(-c3cccc(F)c3)[nH]2)ccc1Cl)N1CCC(O)CC1 [Example 49] | < 1 µM | 10 to 30 µM
O=S(=O)(c1cc(-c2ncc(-c3cccnc3)[nH]2)ccc1Cl)N1CCC(O)CC1 [Example 50] | 1 to 10 µM | > 30 µM
O=S(=O)(c1cc(-c2nc(-c3ccncc3)c[nH]2)ccc1Cl)N1CCC(O)CC1 [Example 51] | > 10 µM | > 30 µM
O=S(=O)(c1cc(-c2nc(-c3ccc(Cl)cc3)c[nH]2)ccc1Cl)N1CCC(O)CC1 [Example 52] | < 1 µM | 10 to 30 µM
O=S(=O)(c1cc(-c2nc(-c3cccc(Cl)c3)c[nH]2)ccc1Cl)N1CCC(O)CC1 [Example 53] | < 1 µM | 10 to 30 µM
O=S(=O)(c1cc(-c2nc(-c3cccc(Br)c3)c[nH]2)ccc1Cl)N1CCC(O)CC1 [Example 54] | < 1 µM | > 30 µM
O=S(=O)(c1cc(-c2nc(-c3ccc(F)c(C(F)(F)F)c3)c[nH]2)ccc1Cl)N1CCC(O)CC1 [Example 55] | < 1 µM | 10 to 30 µM
CC(C)(C)OC(=O)NCCCNS(=O)(=O)c1cc(-c2ncc(-c3ccc(F)c(Br)c3)[nH]2)ccc1Cl [Example 56] | < 1 µM | < 10 µM
CN(C)S(=O)(=O)c1cc(-c2ncc(-c3ccc(F)c(Br)c3)[nH]2)ccc1Cl [Example 57] | 1 to 10 µM | 10 to 30 µM
COC(=O)[C@H]1CCN(S(=O)(=O)c2cc(-c3ncc(-c4ccc(F)c(Br)c4)[nH]3)ccc2Cl)C1 [Example 58] | 1 to 10 µM | > 30 µM
O=C1CCN(S(=O)(=O)c2cc(-c3nc(-c4ccc(Br)c(F)c4)c[nH]3)ccc2Cl)CC1 [Example 59] | < 1 µM | 10 to 30 µM
COC(=O)[C@@H](NS(=O)(=O)c1cc(-c2ncc(-c3ccc(F)c(Br)c3)[nH]2)ccc1Cl)C(C)C [Example 60] | 1 to 10 µM | 10 to 30 µM
NCCCNS(=O)(=O)c1cc(-c2ncc(-c3ccc(F)c(Br)c3)[nH]2)ccc1Cl [Example 61] | 1 to 10 µM | < 10 µM
